Results on two molecules are retold here after PMC9786051, “Natural Product 2-Oxokolavenol Is a Novel FXR Agonist” (Molecules, 2022).

Assay [1] concerns the target T1, Farnesoid X receptor (FXR) (Homo sapiens, UniProt Q96RI1).
T1 construct: gene NR1H4; 6His-FXR-LBD (residues 243-472aa)
T1 sequence (Q96RI1 257-486): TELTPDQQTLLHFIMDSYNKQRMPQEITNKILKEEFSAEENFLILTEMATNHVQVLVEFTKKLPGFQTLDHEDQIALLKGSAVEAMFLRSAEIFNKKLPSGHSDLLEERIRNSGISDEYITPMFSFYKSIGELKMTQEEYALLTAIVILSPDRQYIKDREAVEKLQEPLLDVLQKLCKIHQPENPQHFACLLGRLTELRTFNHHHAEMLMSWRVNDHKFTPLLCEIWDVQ
Description: AlphaScreen coactivator recruitment with purified FXR-LBD; also luciferase reporter (EC50 […]) and M265I/Y369F mutagenesis. In kind it is binding.

Assay [2] addresses T1, Farnesoid X receptor (FXR). In words: AlphaScreen coactivator recruitment with purified FXR-LBD; luciferase reporter. In kind it is biochemical. (In general: Alpha assays give light when donor and acceptor beads are brought close together.)

Molecules are shown by their SMILES.

`CC1=CC(=O)C[C@@H]2[C@@](C)(CC/C(C)=C/CO)[C@H](C)CC[C@@]12C` [2-oxokolavenol] returned an EC50 in assay [1] of roughly 3.7 µM.

On to `CC1=CCC[C@@H]2[C@@](C)(CC/C(C)=C/CO)[C@H](C)CC[C@@]12C` [kolavenol], for which the “AlphaScreen coactivator recruitment with purified FXR-LBD; luciferase reporter” value in assay [2] is “motifs bound to FXR-LBD in response to 2-oxokolavenol, 2-oxokolavelool, kolavenol, or OCA in the AlphaScreen assay”.

The term EC50 denotes the concentration at which the effect is half-maximal. A lower EC50 goes with greater potency.
